One data set concerns Wistar rats. Put plainly: Biotelemetry of body temperature and heart rate. The format is in vivo, rat. As to conditions: SR49059 10 mg/kg before SOC-1. The method, then:
FIG. 7—The monitored body temperatures of Wistar rats administered vehicle, SOC-1 (5 mg/kg), or SOC-1 and the V1A receptor antagonist SR49059 (10 mg/kg).
FIG. 8—The monitored heart rates for Wistar rats administered vehicle, SOC-1 (5 mg/kg), or SOC-1 and the V1A receptor antagonist SR49059 (10 mg/kg).
However, the rats were not ataxic or comatose, they were simply in a relaxed quiescent state. […] Effects on body temperature and other behaviours are not blocked by pre-treatment with the vasopressin V1A receptor antagonist SR49059 (10 mg/kg). […] The data in these two studies was gathered with DataSciences International biotelemetry system.

The subject of the next data set is male Sprague Dawley rats. Put plainly: Methamphetamine-primed reinstatement. The format is in vivo, rat. As to conditions: C25 10 mg/kg IP or SR49059 1 mg/kg IP before SOC-1 10 mg/kg.
The subject of data set [1] is Fos-positive cells in brain regions of interest. Kind of data set: Fos immunohistochemistry in rat brain. In kind it is in vivo, male Wistar rats. The following applies: OT 1 mg/kg, SOC-1 5 mg/kg. As to the method: Fos immunohistochemistry was used to identify the neural “signature” of SOC-1 (5 mg/kg) in rat brain relative to injections of peripheral oxytocin (OT) (1 mg/kg). SOC-1 produces a similar overall pattern of neural activation and behavioural effects as OT. However, the effects are much larger and additional areas are activated by SOC-1 that are implicated in the regulation of social behaviour (e.g. lateral septum, medial preoptic area and supraoptic nucleus). SOC-1 produces powerful activation of OT-containing neurons in both the supraoptic (FIG. 6: (A)=vehicle; (B)=oxytocin; and (C)=SOC-1) and paraventricular nucleus of the hypothalamus.

A further data set relates to HEK-293 cells. Kind of data set: Cell viability (Cell Titer Blue). The format is cell-based. The following applies: 48 hours; for Viability: mean ± SD. The method, then: (§1) No apparent cytotoxicity of SOC-1 has been seen in vitro or toxicity in vivo. In a test, SH-SY5Y neuroblastoma cells and HEK-293 cells (4×10^4 cells per well) were exposed to OT or SOC-1 (0.01-10 μM) for 48 hours, with daily media changes. Viability of cells was assessed after a 4 hour exposure to Cell Titer Blue (Promega).
(In general: Resazurin is reduced to fluorescent resorufin, in cell work by metabolically active cells.)

In data set [2] the test system is SH-SY5Y neuroblastoma cells. Put plainly: Cell viability (Cell Titer Blue). In kind it is cell-based. As to conditions: 48 hours; for Viability: mean ± SD. The method, then: as §1

Molecules are shown by their SMILES.

Seven compounds from patent US11890287B2, “Therapeutic compounds and compositions for treating social disorders and substance use disorders” (Kinoxis Therapeutics Pty Ltd, priority 2015, dated 2024) can be followed below.

Broadly, the melting point is the temperature of the solid-liquid transition. As for `COc1ccc2c(c1)NCc1cnn(C)c1N2` [FB-SOC-6, 7-Methoxy-1-methyl-1,4,5,10-tetrahydrobenzo[b]pyrazolo[3,4-e][1,4]diazapine], the melting point fell in the range of 126 to 128 °C.

Turning to `Cc1ccc2c(c1)NCc1cnn(C)c1N2` [FB-SOC-4, 1,7-Dimethyl-1,4,5,10-tetrahydrobenzo[b]pyrazolo[3,4-e][1,4]diazapine], the melting point was 172 to 173 °C.

Regarding `COc1ccc(S(=O)(=O)N2c3ccc(Cl)cc3[C@](O)(c3ccccc3Cl)[C@@H]2C(=O)N2CCC[C@H]2C(N)=O)cc1OC` [SR49059, reference compound], the “block of SOC-1 effects on body temperature and other behaviours by pre-treatment” value in the data set on Wistar rats is reported as “not blocked”. Also, in the data set with male Sprague Dawley rats, the “block of the attenuating effect of SOC-1 on methamphetamine-primed reinstatement” value is “failed to block the attenuating effect of SOC-1”.

The compound `Cn1ncc2c1Nc1ccc(F)cc1NC2` [FB-SOC-2, 7-Fluoro-1-methyl-1,4,5,10-tetrahydrobenzo[b]pyrazolo[3,4-e][1,4]diazapine] had a melting point of 181 to 183 °C.

On to `Cc1cccc2c1Nc1c(cnn1C)CN2` [FB-SOC-5, 1,9-Dimethyl-1,4,5,10-tetrahydrobenzo[b]pyrazolo[3,4-e][1,4]diazepine], for which the melting point was 137 to 139 °C.

Regarding `COCc1nnc(N2CC(Oc3ccc(F)cc3Cl)C2)n1-c1ccc(OC)nc1` [C25, 5-(3-(3-(2-chloro-4-fluorophenoxy)azetidin-1-yl)-5-(methoxymethyl)-4H-1,2,4-triazol-4-yl)-2-methoxypyridine, reference compound], in the data set on male Sprague Dawley rats, the “block of the attenuating effect of SOC-1 on methamphetamine-primed reinstatement” value was “failed to block the attenuating effect of SOC-1”.

`CC[C@H](C)[C@@H]1NC(=O)[C@H](Cc2ccc(O)cc2)NC(=O)[C@@H](N)CSSC[C@@H](C(=O)N2CCC[C@H]2C(=O)N[C@@H](CC(C)C)C(=O)NCC(N)=O)NC(=O)[C@H](CC(N)=O)NC(=O)[C@H](CCC(N)=O)NC1=O` [Oxytocin, oxytocin, reference compound]: in data set [1], the “Mean number of Fos-positive cells, BNST (dorsolateral division)” value turned out to be 11.33; the “Mean number of Fos-positive cells, BNST (middle anterior part))” value came out at 5.83; the “Mean number of Fos-positive cells, Central nucleus of the amygdala” value was determined as 25.14; the “Mean number of Fos-positive cells, Lateral Parabrachial nucleus” value is 19.14. Further, in data set [1], the “Mean number of Fos-positive cells, Lateral septum (ventral)” value came out at 9.17; the “Mean number of Fos-positive cells, Locus Ceruleus” value amounted to 4.14; the “Mean number of Fos-positive cells, Medial preoptic area” value is 3.8; the “Mean number of Fos-positive cells, Median preoptic nucleus” value turned out to be 7.17. Besides, in data set [1], the “Mean number of Fos-positive cells, Nucleus of Solitary Tract” value stood at 31.68; the “Mean number of Fos-positive cells, PAG (ventrolateral)” value worked out at 6.57; the “Mean number of Fos-positive cells, Paraventircular nucleus” value came out at 55.57; the “Mean number of Fos-positive cells, Supraoptic nucleus” value amounted to 4.57. In addition, in data set [1], the “Mean percent of OT cells that were Fos positive, Paraventircular nucleus” value came out at 22.07% and the “Mean percent of OT cells that were Fos positive, Supraoptic nucleus” value amounted to 13.5%. The Viability in the data set with HEK-293 cells (0.01 μM) was 97.8 ± 6.6 percentage of vehicle viability. Further, the Viability in the data set with HEK-293 cells (0.1 μM) is recorded as 100.0 ± 3.2 percentage of vehicle viability. Moreover, the Viability in the data set on HEK-293 cells (1 μM) is 101.5 ± 3.7 percentage of vehicle viability. In addition, in the data set on HEK-293 cells (10 μM), the Viability is 104.3 ± 2.6 percentage of vehicle viability. The differences in viability result with HEK-293 cells (0.01-10 μM) is “No significant differences in viability”. Besides, in data set [2] (0.01 μM), the Viability is on record as 100.4 ± 2.4 percentage of vehicle viability. In addition, the Viability in data set [2] (0.1 μM) was 101.3 ± 1.0 percentage of vehicle viability. In addition, the Viability in data set [2] (1 μM) is 100.2 ± 1.1 percentage of vehicle viability. In addition, in data set [2] (10 μM), the Viability was 100.6 ± 2.9 percentage of vehicle viability. Also, in data set [2] (0.01-10 μM), the differences in viability result is given as “No significant differences in viability”.
